pIC50: −log10 of the molar value. Entries after “also recorded” stand apart in the source; their conditions may differ. Read-outs that look alike come from different tables or passages of the source.
Key:
CD206+ macrophages [1] = assay: MR imaging in mouse model of cutaneous wound healing; assay type: in vivo; conditions: 45-75 min post-injection, wildtype mice
CD206+ TAMs = assay: MR imaging of experimental glioma; assay type: in vivo, mouse; conditions: third week, 30 and 60 min post-injection
Description: Eight-to nine-week-old C57BL/6J female mice were used for MRI of wound healing and glioma (Jackson Laboratory, ME). The generation of wound healing and glioma is described in Examples 14 and 15, respectively. The mice with subcutaneous wounds were imaged on days 1, 4, and 7 longitudinally or on day 7. Mice with glioma were imaged on the third week. […] Regions of interest (ROIs) were drawn and the contrast-to-noise ratios (CNRs, CNRpre-contrast subtracted) were calculated by a radiologist with over 20 years of experience blinded to the identity of the imaging agent used and the strain of the mice (n=3 per group). […]
Eight- to nine-week-old C57BL/6J female mice were used in this experiment (Jackson laboratory, ME). […] The mice then were monitored daily for signs of discomfort or neurological symptoms.

[2] = test system: M1/M2 macrophages and HEK293 cells; assay: ICP-MS of gadolinium on cells incubated with agent; assay type: cell-based
Description: M1 and M2 differentiated macrophages were incubated with 1 mM of Mann2-DTPA-Gd for 1 h at 4° C. After washing with PBS (×3), cells were collected, digested with nitric acid (70%, 200 μL) overnight and subjected to ICP-MS to detect the amount of Gd.
M1 and M2 polarized differentiation. Raw 264.7 cells (Passage 8 from the cell core of center for Systems Biology at Massachusetts General Hospital, Boston) in 10 mL petri dishes were cultured with Dulbecco's modified eagle medium with high glucose (DMEM, Thermo Fisher Scientific, NY, USA) containing 10% of fetal bovine serum (FBS, Sigma-Aldrich, MO, USA) and 0.5% streptomycin/penicillin (Cellgro) until reaching 80% of confluency. Then differentiating media containing IFN-gamma (100 ng/ml the above medium) for M1 polarization and IL-4 (100 ng/mL) for M2 polarization were added to the dishes, respectively. After 24 h, the M1 and M2 polarized macrophages were ready for the following experiments.

[3] = in vitro relaxivity (r1), Bruker Minispect; assay type: physicochemical
Description: Relaxation time (T1) of Mann2-DTPA-Gd/MannGdFish at concentrations of 0.1, 0.2, 0.3, 0.5, 0.6, 0.75, and 1 mM in PBS was measured on the Bruker Minispect (Bruker Analytics, MA) at 0.47 T (20 MHz) at 40° C. The slope value of the linear function of 1/T1 (s) to their corresponding concentrations is defined as the relaxivity (n=3 for each concentration).

CD206+ macrophages [4] = assay: MR imaging in mouse model of cutaneous wound healing; assay type: in vivo
Description: Eight-to nine-week-old C57BL/6J female mice were used for MRI of wound healing and glioma (Jackson Laboratory, ME). The generation of wound healing and glioma is described in Examples 14 and 15, respectively. The mice with subcutaneous wounds were imaged on days 1, 4, and 7 longitudinally or on day 7. Mice with glioma were imaged on the third week. All the mice were imaged pre- and at 0, 15, 30, 45 and 60 min after 0.3 mmol/kg of Mann2-DTPA-Gd or MannGdFish was administered intravenously via a tail vein using serial T1 rapid acquisition with relaxation enhancement (RARE) sequence (TR: 935.77 ms, TE: 13.59 ms, averages: 12, rare factor: 4, 256×256×48 matrix size, 0.156×0.156×1 mm^3 voxel size) with chemical fat suppression using a Hermitian pulse shape with an 8.253 ms pulse and 701.19 Hz bandwidth 3.5 ppm down from the water peak and respiratory gating on a 4.7 T small animal MR scanner (Bruker, Cambridge, MA) with a 3 cm quadrature volume coil (Rapid MR International, Germany). Regions of interest (ROIs) were drawn and the contrast-to-noise ratios (CNRs, CNRpre-contrast subtracted) were calculated by a radiologist with over 20 years of experience blinded to the identity of the imaging agent used and the strain of the mice (n=3 per group).
Wound healing procedure. Seven-to ten-week-old C57BL/6J female mice (The Jackson Laboratories, ME) and mannose-receptor deficient mice were used in this study. A circular outline on the back of a mouse was made with a 4 mm biopsy punch (Kai Medical, Japan) under anesthesia using isoflurane. Then a full-thickness excisional wound was generated that extended through the subcutaneous tissue. A silicone splint was glued over the wound, anchored with 6-0 nylon sutures, and covered with a transparent occlusive dressing (OpSite). Xylazine/norepinephrine (100 μL) were intraperitoneally injected twice a day for two days and the mice were monitored daily.

CD206 = target: T1, CD206 (Homo sapiens, UniProt P22897); conditions: read-out: binding affinity to CD206 (IC50); cited from earlier work
T1 sequence (P22897 19-1456): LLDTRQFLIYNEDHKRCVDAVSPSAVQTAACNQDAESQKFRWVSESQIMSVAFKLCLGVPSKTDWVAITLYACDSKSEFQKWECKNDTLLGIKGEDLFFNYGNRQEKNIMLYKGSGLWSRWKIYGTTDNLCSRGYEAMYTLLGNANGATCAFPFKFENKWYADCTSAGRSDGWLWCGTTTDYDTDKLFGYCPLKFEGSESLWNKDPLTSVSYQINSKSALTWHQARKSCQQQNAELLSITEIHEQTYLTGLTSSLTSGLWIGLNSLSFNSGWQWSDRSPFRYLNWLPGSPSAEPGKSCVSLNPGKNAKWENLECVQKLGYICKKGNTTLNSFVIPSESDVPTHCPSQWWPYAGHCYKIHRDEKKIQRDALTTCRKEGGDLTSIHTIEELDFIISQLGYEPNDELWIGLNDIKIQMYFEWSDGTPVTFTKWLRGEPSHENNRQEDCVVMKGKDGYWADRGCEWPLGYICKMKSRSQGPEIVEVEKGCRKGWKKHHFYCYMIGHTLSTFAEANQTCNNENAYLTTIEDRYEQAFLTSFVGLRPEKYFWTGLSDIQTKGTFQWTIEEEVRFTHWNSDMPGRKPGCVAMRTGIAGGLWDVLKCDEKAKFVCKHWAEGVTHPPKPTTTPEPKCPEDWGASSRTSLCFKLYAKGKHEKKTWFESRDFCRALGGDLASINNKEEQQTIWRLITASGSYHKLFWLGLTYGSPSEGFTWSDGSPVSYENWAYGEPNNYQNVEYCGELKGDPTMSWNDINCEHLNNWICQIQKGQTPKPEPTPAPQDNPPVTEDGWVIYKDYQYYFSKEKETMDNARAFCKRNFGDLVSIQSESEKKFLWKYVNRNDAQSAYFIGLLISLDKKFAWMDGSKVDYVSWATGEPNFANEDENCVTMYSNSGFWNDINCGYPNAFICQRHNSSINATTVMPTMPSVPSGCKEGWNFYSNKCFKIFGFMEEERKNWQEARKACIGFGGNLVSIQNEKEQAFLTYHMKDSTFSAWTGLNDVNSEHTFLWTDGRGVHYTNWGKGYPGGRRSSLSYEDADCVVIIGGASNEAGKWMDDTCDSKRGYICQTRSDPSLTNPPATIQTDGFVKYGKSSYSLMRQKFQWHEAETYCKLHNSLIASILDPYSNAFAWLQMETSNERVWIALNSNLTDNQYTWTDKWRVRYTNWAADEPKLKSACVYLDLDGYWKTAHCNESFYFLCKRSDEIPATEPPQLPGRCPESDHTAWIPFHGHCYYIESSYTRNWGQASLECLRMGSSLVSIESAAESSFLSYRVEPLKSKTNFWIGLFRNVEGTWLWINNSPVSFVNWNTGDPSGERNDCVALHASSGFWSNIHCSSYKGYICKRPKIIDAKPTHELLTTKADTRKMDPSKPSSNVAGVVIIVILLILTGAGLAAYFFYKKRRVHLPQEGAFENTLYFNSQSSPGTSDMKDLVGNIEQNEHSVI

Row | SMILES | CNR on day 7 compared to day 4 (CD206+ macrophages [1]) | contrast enhancement of glioma (CD206+ TAMs) | amount of gadolinium on M2 macrophages versus M1 macrophages and HEK293 cells [2] | relaxivity (r1) [3] | relaxivity (r1) ([3]; in PBS, 0.47 T, 40° C.) | CNR on day 7 compared to day 4 (CD206+ macrophages [4]; 45 min post-injection, wildtype mouse) | CNR on day 7 versus days 1 and 4 (CD206+ macrophages [4]; 60 min post-injection, longitudinal imaging) | signal intensity / CNR time course (CD206+ macrophages [4]; mannose receptor-knockout mice, day 7, 0.3 mmol/kg) | contrast-to-noise ratio (CNR) time course (CD206+ macrophages [4]; wildtype mice, day 7 after wound induction) | pIC50 (CD206)
1 | O=C([O-])CN(CCN(CC(=O)[O-])CC(=O)NC1C(O)OC(CO)C(O)C1O)CCN(CC(=O)[O-])CC(=O)NC1C(O)OC(CO)C(O)C1O.[Gd+3] (stereo not shown) [Mann2-DTPA-Gd] | 2- to 3 fold | Substantial contrast enhancement | much higher than that on M1 macrophages and HEK293 cells; also recorded: markedly higher than that in M1 macrophages and HEK293 cells | 3.6 mmol⁻¹ s⁻¹ | 3.6 mM⁻¹ s⁻¹ | about two-fold | much higher compared to that on days 1 and 4 | decreased significantly after 15 min post-injection compared to that in wildtype mice; also recorded: decreased over time after initially peaking at 15 min post-injection | increasing over time until 45 min post-injection prior to slowly decreasing; also recorded: slow decrease of CNR | 
2 | O=C[C@@H](O)[C@@H](O)[C@H](O)[C@H](O)CO [D-mannose] |  |  |  |  |  |  |  |  |  | 2.26

Source: patent publication US20260183432A1, “IMAGING AGENTS FOR DETECTING CD206+ MACROPHAGES” (THE GENERAL HOSPITAL CORPORATION, priority 2022, published 2026)
